Assay results reported in ChEMBL document CHEMBL4402510, “Caprazamycins: Promising lead structures acting on a novel antibacterial target MraY” (Eur J Med Chem, 2019).
≈ marks a conversion by molar mass, not a printed value.

Legend:
Enterococcus faecalis [1] = assay: Antibacterial activity against t Enterococcus faecalis after 20 hrs by NCCLS-based two-fold broth dilution method; type: functional
Haemophilus influenzae [2] = assay: Antibacterial activity against Haemophilus influenzae after 20 hrs by NCCLS-based two-fold broth dilution method; type: functional
Enterococcus faecalis [3] = assay: Antibacterial activity against t Enterococcus faecalis VRE after 20 hrs by NCCLS-based two-fold broth dilution method; type: functional
Enterococcus faecium [4] = assay: Antibacterial activity against Enterococcus faecium SR7917 (VRE); type: functional
Haemophilus influenzae [5] = assay: Antibacterial activity against Haemophilus influenzae ATCC 10211; type: functional
Staphylococcus aureus [6] = assay: Antibacterial activity against methicillin susceptible Staphylococcus aureus ATCC 29213; type: functional
Streptococcus pneumoniae = assay: Antibacterial activity against Streptococcus pneumoniae; type: functional
Staphylococcus aureus [7] = assay: Antibacterial activity against methicillin resistant Staphylococcus aureus SR3637; type: functional
[8] = target: T1, Phospho-N-acetylmuramoyl-pentapeptide-transferase (Staphylococcus aureus, UniProt P0C1R8); assay: Inhibition of MraY in Staphylococcus aureus
T1 sequence (P0C1R8 whole entry): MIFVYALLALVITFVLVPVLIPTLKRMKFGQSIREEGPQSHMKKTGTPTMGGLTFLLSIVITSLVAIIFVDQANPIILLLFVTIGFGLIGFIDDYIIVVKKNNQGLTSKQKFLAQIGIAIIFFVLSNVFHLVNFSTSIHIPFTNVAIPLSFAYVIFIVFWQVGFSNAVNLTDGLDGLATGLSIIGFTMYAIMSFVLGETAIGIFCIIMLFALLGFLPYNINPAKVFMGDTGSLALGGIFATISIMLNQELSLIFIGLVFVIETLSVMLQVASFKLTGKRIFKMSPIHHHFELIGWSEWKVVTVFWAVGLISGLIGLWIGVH

Pseudomonas aeruginosa [9] = assay: Antibacterial activity against Pseudomonas aeruginosa YY165; type: functional
Acinetobacter baumannii = assay: Antibacterial activity against Acinetobacter baumannii ATCC 19606; type: functional; details: ATCC 19606 = CIP 70.34 = JCM 6841
Pseudomonas aeruginosa [10] = assay: Antibacterial activity against Pseudomonas aeruginosa PAO1 deltamexB; type: functional
Enterococcus faecalis [11] = assay: Antibacterial activity against Enterococcus faecalis SR7914 (VRE); type: functional
Escherichia coli [12] = assay: Antibacterial activity against Escherichia coli ATCC 25922; type: functional
Enterococcus faecium [13] = assay: Antibacterial activity against Enterococcus faecium ATCC 19434; type: functional
Enterococcus faecalis [14] = assay: Antibacterial activity against Enterococcus faecalis ATCC 29212; type: functional
Staphylococcus aureus [15] = assay: Antibacterial activity against methicillin resistant Staphylococcus aureus after 20 hrs by NCCLS-based two-fold broth dilution method; type: functional
Staphylococcus aureus [16] = assay: Antibacterial activity against methicillin susceptible Staphylococcus aureus after 20 hrs by NCCLS-based two-fold broth dilution method; type: functional
Enterococcus faecium [17] = assay: Antibacterial activity against t Enterococcus faecium VRE after 20 hrs by NCCLS-based two-fold broth dilution method; type: functional
Citrobacter freundii = assay: Antibacterial activity against Citrobacter freundii ATCC 8090; type: functional
Staphylococcus aureus [18] = assay: Antibacterial activity against Staphylococcus aureus ATCC 25923; type: functional
[19] = target: T2, Phospho-N-acetylmuramoyl-pentapeptide-transferase (Aquifex aeolicus (strain VF5), UniProt O66465); assay: Inhibition of MraY in Aquifex aeolicus
T2 sequence (O66465 whole entry): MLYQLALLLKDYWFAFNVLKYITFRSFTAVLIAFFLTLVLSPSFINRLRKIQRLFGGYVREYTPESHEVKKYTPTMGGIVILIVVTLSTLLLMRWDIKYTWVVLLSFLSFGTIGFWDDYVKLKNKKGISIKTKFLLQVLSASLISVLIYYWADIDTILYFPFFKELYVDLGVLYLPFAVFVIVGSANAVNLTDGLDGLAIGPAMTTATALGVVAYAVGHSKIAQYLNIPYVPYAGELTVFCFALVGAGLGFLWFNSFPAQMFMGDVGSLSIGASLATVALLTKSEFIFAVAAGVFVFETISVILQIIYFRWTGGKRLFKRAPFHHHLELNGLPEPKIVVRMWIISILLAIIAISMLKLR

Escherichia coli [20] = assay: Antibacterial activity against Escherichia coli ATCC 8730; type: functional
Pseudomonas aeruginosa [21] = assay: Antibacterial activity against Pseudomonas aeruginosa ATCC 27853; type: functional
Staphylococcus aureus [22] = assay: Antibacterial activity against methicillin resistant Staphylococcus aureus ATCC 43300; type: functional
Enterococcus faecium [23] = assay: Antibacterial activity against t Enterococcus faecium after 20 hrs by NCCLS-based two-fold broth dilution method; type: functional
[24] = target: T3, Phospho-N-acetylmuramoyl-pentapeptide-transferase (Bacillus subtilis (strain 168), UniProt Q03521); assay: Inhibition of MraY in Bacillus subtilis
T3 sequence (Q03521 whole entry): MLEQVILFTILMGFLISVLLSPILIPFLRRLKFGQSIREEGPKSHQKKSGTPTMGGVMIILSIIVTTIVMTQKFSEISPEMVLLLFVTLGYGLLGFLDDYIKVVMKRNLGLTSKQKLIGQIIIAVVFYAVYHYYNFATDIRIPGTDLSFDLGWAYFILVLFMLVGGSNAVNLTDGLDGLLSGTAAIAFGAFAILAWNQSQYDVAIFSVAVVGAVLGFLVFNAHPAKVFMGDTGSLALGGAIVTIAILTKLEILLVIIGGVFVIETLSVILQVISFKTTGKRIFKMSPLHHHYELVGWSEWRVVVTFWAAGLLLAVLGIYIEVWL

SMILES | MIC (Enterococcus faecium [4]) [mg/L] | MIC (Haemophilus influenzae [5]) [mg/L] | MIC (Staphylococcus aureus [6]) [mg/L] | MIC (Staphylococcus aureus [7]) [mg/L] | MIC (Enterococcus faecalis [11]) [mg/L] | MIC (Enterococcus faecium [13]) [mg/L] | MIC (Enterococcus faecalis [14]) [mg/L] | MIC (Citrobacter freundii) [mg/L] | MIC (Staphylococcus aureus [18]) [mg/L] | MIC (Escherichia coli [20]) [mg/L] | MIC (Pseudomonas aeruginosa [21]) [mg/L] | MIC (Staphylococcus aureus [22]) [mg/L] | other results
CCCCCCCCCCCCCCCC(=O)OC[C@@H]1[C@H](C(N)=O)[C@H]([C@H]2O[C@@H](n3ccc(=O)[nH]c3=O)[C@H](O)[C@@H]2O)ON1CCCN |  |  |  |  |  |  |  |  |  |  |  |  | MIC (Enterococcus faecalis [1]; read-out: MIC): 16 mg/L (≈ 24.5 µM); MIC (Haemophilus influenzae [2]): 0.25 to 0.5 mg/L (≈ 0.382 to 0.765 µM); MIC (Enterococcus faecalis [3]; read-out: MIC): 4 to 8 mg/L (≈ 6.12 to 12.2 µM)
CC(=O)N[C@@H]1CCN[C@@H]([C@@H](O[C@@H]2O[C@H](CN)[C@@H](O)[C@H]2O)[C@H]2O[C@@H](n3ccc(=O)[nH]c3=O)[C@H](O)[C@@H]2O)C1 | > 64 | > 64 | > 64 | > 64 | > 64 | > 64 | > 64 |  |  |  |  |  | MIC (Streptococcus pneumoniae): > 64 mg/L; IC50 [8]: > 4200 µM; MIC (Pseudomonas aeruginosa [9]): > 64 mg/L; MIC (Acinetobacter baumannii): > 64 mg/L; MIC (Pseudomonas aeruginosa [10]): > 64 mg/L; MIC (Escherichia coli [12]): > 64 mg/L
CCCCCCCCCCCCCCCC(=O)NC[C@@H]1C[C@H]2[C@@H](C(=O)N1CCCNC(=N)N)[C@H]([C@H]1O[C@@H](n3ccc(=O)[nH]c3=O)[C@H](O)[C@@H]1O)ON2CCCN | 8 (≈ 10.3 µM) |  | 8 (≈ 10.3 µM) | 8 (≈ 10.3 µM) | 16 (≈ 20.6 µM) |  | 16 (≈ 20.6 µM) |  |  |  |  |  | MIC (Enterococcus faecalis [1]): 16 mg/L (≈ 20.6 µM); MIC (Staphylococcus aureus [15]): 8 mg/L (≈ 10.3 µM); MIC (Staphylococcus aureus [16]): 8 mg/L (≈ 10.3 µM); MIC (Enterococcus faecium [17]): 8 mg/L (≈ 10.3 µM); MIC (Enterococcus faecalis [3]): 16 mg/L (≈ 20.6 µM)
NC[C@H]1O[C@@H](O[C@@H](Cc2cn(CCCCCCCCCCc3ccccc3)nn2)[C@H]2O[C@@H](n3ccc(=O)[nH]c3=O)[C@H](O)[C@@H]2O)[C@H](O)[C@@H]1O |  |  |  |  |  | 64 (≈ 95.1 µM) |  | > 128 | 32 (≈ 47.6 µM) | > 128 | > 128 | 16 (≈ 23.8 µM) | IC50 [19]: 20 µM
CCCCCCCCCCCCCCCCC[C@@H]1CN[C@@H]([C@H](O[C@@H]2O[C@H](CN)[C@@H](O)[C@H]2O)[C@H]2O[C@@H](n3ccc(=O)[nH]c3=O)[C@H](O)[C@@H]2O)C(=O)N(C)[C@@H]1C(=O)O | 16 (≈ 20.4 µM) |  | 8 (≈ 10.2 µM) | 8 (≈ 10.2 µM) | 16 (≈ 20.4 µM) | 8 (≈ 10.2 µM) | 8 (≈ 10.2 µM) |  |  |  |  |  | MIC (Enterococcus faecalis [1]; read-out: MIC): 4 mg/L (≈ 5.1 µM); MIC (Staphylococcus aureus [15]; read-out: MIC): 4 mg/L (≈ 5.1 µM); MIC (Staphylococcus aureus [16]; read-out: MIC): 4 mg/L (≈ 5.1 µM); MIC (Enterococcus faecium [17]; read-out: MIC): 8 mg/L (≈ 10.2 µM); MIC (Enterococcus faecium [23]): 8 mg/L (≈ 10.2 µM); MIC (Enterococcus faecalis [3]; read-out: MIC): 8 mg/L (≈ 10.2 µM)
CC(=O)N[C@@H]1CCN[C@H]([C@H](O[C@@H]2O[C@H](CN)[C@@H](O)[C@H]2O)[C@H]2O[C@@H](n3ccc(=O)[nH]c3=O)[C@H](O)[C@@H]2O)C1 | > 64 | > 64 | > 64 | > 64 | > 64 | > 64 | > 64 |  |  |  |  |  | MIC (Streptococcus pneumoniae): > 64 mg/L; IC50 [8]: 2600 µM; MIC (Pseudomonas aeruginosa [9]): > 64 mg/L; MIC (Acinetobacter baumannii): > 64 mg/L; MIC (Pseudomonas aeruginosa [10]): > 64 mg/L; MIC (Escherichia coli [12]): > 64 mg/L
CCCCCCCCCCc1cn(C[C@H](O[C@@H]2O[C@H](CN)[C@@H](O)[C@H]2O)[C@H]2O[C@@H](n3ccc(=O)[nH]c3=O)[C@H](O)[C@@H]2O)nn1 |  |  |  |  |  | > 128 |  | > 128 | 16 (≈ 26.8 µM) | > 128 | 128 (≈ 215 µM) | 64 (≈ 107 µM) | IC50 [19]: 35 µM
CCCCCCCCCCCCCCCC(=O)OC[C@H]1[C@@H](C(=O)N(C)C)[C@H]([C@H]2O[C@@H](n3ccc(=O)[nH]c3=O)[C@H](O)[C@@H]2O)ON1CCCN |  | 1 (≈ 1.47 µM) |  |  |  |  |  |  |  |  |  |  | MIC (Haemophilus influenzae [2]): 1 mg/L (≈ 1.47 µM)
NC[C@H]1O[C@@H](O[C@@H](c2cn(CCCCCOc3ccc(C(=O)c4ccccc4)cc3)nn2)[C@H]2O[C@@H](n3ccc(=O)[nH]c3=O)[C@H](O)[C@@H]2O)[C@H](O)[C@@H]1O |  |  |  |  |  | > 128 |  | > 128 | > 128 | > 128 | > 128 | 64 (≈ 90.3 µM) | IC50 [24]: 100 µM
